Assay: xn = mol fraction of the nth substance listed, in the solute-free solvent

Nc1ncc(Br)nc1Br + CC(C)O + O
solubility (g/100 g solution)
Details | 278.15 K | 283.15 K | 288.15 K | 293.15 K | 298.15 K | 303.15 K | 308.15 K | 313.15 K | 318.15 K | 323.15 K
x2 = 0.03225 | 0.0151 | 0.0182 | 0.0212 | 0.0248 | 0.0285 | 0.032 | 0.0361 | 0.0405 | 0.0448 | 0.0495
x2 = 0.06974 | 0.0399 | 0.0475 | 0.0548 | 0.0636 | 0.0724 | 0.0809 | 0.0905 | 0.101 | 0.111 | 0.122
x2 = 0.1139 | 0.0745 | 0.0882 | 0.101 | 0.117 | 0.133 | 0.148 | 0.165 | 0.183 | 0.202 | 0.221
x2 = 0.1666 | 0.109 | 0.129 | 0.148 | 0.171 | 0.194 | 0.218 | 0.242 | 0.269 | 0.297 | 0.327
x2 = 0.2307 | 0.133 | 0.157 | 0.181 | 0.21 | 0.24 | 0.273 | 0.304 | 0.34 | 0.377 | 0.42
x2 = 0.3103 | 0.153 | 0.178 | 0.21 | 0.244 | 0.281 | 0.318 | 0.358 | 0.403 | 0.449 | 0.5
x2 = 0.4117 | 0.166 | 0.198 | 0.233 | 0.273 | 0.312 | 0.358 | 0.403 | 0.453 | 0.505 | 0.567
x2 = 0.5454 | 0.181 | 0.216 | 0.255 | 0.298 | 0.344 | 0.398 | 0.449 | 0.51 | 0.573 | 0.64
x2 = 0.7297 | 0.197 | 0.236 | 0.277 | 0.324 | 0.376 | 0.432 | 0.496 | 0.562 | 0.634 | 0.721

O=C1C=CC(=O)N1c1ccccc1Br + CC(C)O + O
solubility (g/100 g solution)
Details | 278.15 K | 283.15 K | 288.15 K | 293.15 K | 298.15 K | 303.15 K | 308.15 K | 313.15 K | 318.15 K | 323.15 K
x2 = 0.03225 | 0.488 | 0.623 | 0.779 | 0.978 | 1.23 | 1.51 | 1.84 | 2.23 | 2.7 | 3.25
x2 = 0.06974 | 0.861 | 1.08 | 1.35 | 1.69 | 2.09 | 2.55 | 3.1 | 3.77 | 4.48 | 5.34
x2 = 0.1139 | 1.4 | 1.76 | 2.18 | 2.7 | 3.31 | 3.97 | 4.86 | 5.84 | 6.97 | 8.22
x2 = 0.1666 | 2.08 | 2.57 | 3.18 | 3.87 | 4.71 | 5.69 | 6.76 | 8.01 | 9.42 | 11
x2 = 0.2307 | 2.9 | 3.57 | 4.27 | 5.21 | 6.18 | 7.35 | 8.51 | 10.1 | 11.6 | 13.5
x2 = 0.3103 | 3.46 | 4.18 | 5.06 | 6.06 | 7.2 | 8.48 | 9.92 | 11.5 | 13.2 | 15.1
x2 = 0.4117 | 3.79 | 4.6 | 5.54 | 6.58 | 7.75 | 9.12 | 10.5 | 12.3 | 14.1 | 16.1
x2 = 0.5454 | 3.85 | 4.69 | 5.65 | 6.75 | 7.99 | 9.39 | 10.8 | 12.7 | 14.6 | 16.7
x2 = 0.7297 | 3.73 | 4.58 | 5.43 | 6.58 | 7.83 | 9.28 | 10.8 | 12.5 | 14.4 | 16.6

O=c1cc(CBr)c2ccccc2[nH]1 + CC(C)O + O
solubility (g/100 g solution)
Details | 278.15 K | 283.15 K | 288.15 K | 293.15 K | 298.15 K | 303.15 K | 308.15 K | 313.15 K | 318.15 K
x2 = 0.03225 | 0.0121 | 0.0159 | 0.0207 | 0.0271 | 0.0355 | 0.0446 | 0.057 | 0.0718 | 0.0897
x2 = 0.06974 | 0.0203 | 0.0259 | 0.0329 | 0.0413 | 0.0516 | 0.0641 | 0.079 | 0.0958 | 0.119
x2 = 0.1139 | 0.03 | 0.0369 | 0.0456 | 0.0556 | 0.0685 | 0.0827 | 0.099 | 0.118 | 0.14
x2 = 0.1666 | 0.0397 | 0.0483 | 0.0576 | 0.0694 | 0.082 | 0.0986 | 0.115 | 0.136 | 0.158
x2 = 0.2307 | 0.0498 | 0.0596 | 0.0697 | 0.0834 | 0.0971 | 0.113 | 0.131 | 0.151 | 0.173
x2 = 0.3103 | 0.0585 | 0.0689 | 0.0799 | 0.0928 | 0.106 | 0.123 | 0.141 | 0.161 | 0.18
x2 = 0.4117 | 0.0623 | 0.0721 | 0.0833 | 0.0972 | 0.112 | 0.127 | 0.144 | 0.163 | 0.184
x2 = 0.5454 | 0.065 | 0.0751 | 0.0871 | 0.1 | 0.114 | 0.13 | 0.147 | 0.164 | 0.185
x2 = 0.7297 | 0.0639 | 0.0739 | 0.0847 | 0.0962 | 0.11 | 0.124 | 0.14 | 0.158 | 0.176

c1ccc2c(c1)CCc1ccccc1N2 + CC(C)O + O
solubility (g/100 g solution)
Details | 283.15 K | 288.15 K | 293.15 K | 298.15 K | 303.15 K | 308.15 K | 313.15 K | 318.15 K | 323.15 K | 328.15 K
x2 = 0.03176 | 0.0176 | 0.0251 | 0.0346 | 0.0488 | 0.0604 | 0.0841 | 0.111 | 0.148 | 0.194 | 0.252
x2 = 0.0697 | 0.0729 | 0.101 | 0.136 | 0.186 | 0.24 | 0.32 | 0.411 | 0.527 | 0.674 | 0.851
x2 = 0.1134 | 0.12 | 0.164 | 0.22 | 0.296 | 0.38 | 0.499 | 0.636 | 0.808 | 1.02 | 1.28
x2 = 0.1667 | 0.119 | 0.156 | 0.212 | 0.286 | 0.384 | 0.504 | 0.625 | 0.779 | 0.979 | 1.22
x2 = 0.2299 | 0.126 | 0.162 | 0.214 | 0.281 | 0.369 | 0.484 | 0.601 | 0.762 | 0.947 | 1.18
x2 = 0.3101 | 0.114 | 0.153 | 0.205 | 0.27 | 0.348 | 0.452 | 0.575 | 0.726 | 0.915 | 1.14
x2 = 0.4103 | 0.132 | 0.176 | 0.237 | 0.308 | 0.396 | 0.511 | 0.648 | 0.814 | 1.02 | 1.27
x2 = 0.5463 | 0.168 | 0.221 | 0.295 | 0.38 | 0.487 | 0.622 | 0.771 | 0.958 | 1.18 | 1.47
x2 = 0.7321 | 0.172 | 0.219 | 0.296 | 0.374 | 0.48 | 0.613 | 0.778 | 0.975 | 1.22 | 1.51

Nc1ncc(Br)nc1Br + CC(O)CO + O
solubility (g/100 g solution)
Details | 278.15 K | 283.15 K | 288.15 K | 293.15 K | 298.15 K | 303.15 K | 308.15 K | 313.15 K | 318.15 K | 323.15 K
x2 = 0.02564 | 0.0095 | 0.0115 | 0.0136 | 0.016 | 0.0185 | 0.0208 | 0.0236 | 0.0266 | 0.0296 | 0.0328
x2 = 0.0559 | 0.0197 | 0.0236 | 0.0277 | 0.0324 | 0.0372 | 0.0418 | 0.0471 | 0.0527 | 0.0583 | 0.0644
x2 = 0.09214 | 0.0333 | 0.0398 | 0.0466 | 0.0542 | 0.0622 | 0.0696 | 0.0781 | 0.0872 | 0.0963 | 0.106
x2 = 0.1364 | 0.0486 | 0.0576 | 0.0678 | 0.0785 | 0.0902 | 0.101 | 0.113 | 0.126 | 0.139 | 0.154
x2 = 0.1915 | 0.0614 | 0.0724 | 0.0858 | 0.0998 | 0.115 | 0.13 | 0.147 | 0.163 | 0.18 | 0.2
x2 = 0.2621 | 0.0735 | 0.0873 | 0.103 | 0.12 | 0.138 | 0.158 | 0.176 | 0.197 | 0.218 | 0.244
x2 = 0.3559 | 0.0818 | 0.0972 | 0.116 | 0.134 | 0.156 | 0.178 | 0.201 | 0.225 | 0.251 | 0.281
x2 = 0.4865 | 0.0875 | 0.105 | 0.125 | 0.146 | 0.17 | 0.196 | 0.219 | 0.246 | 0.276 | 0.307
x2 = 0.6806 | 0.0874 | 0.104 | 0.124 | 0.147 | 0.171 | 0.196 | 0.224 | 0.252 | 0.281 | 0.316

O=c1cc(CBr)c2ccccc2[nH]1 + CCCO + O
solubility (g/100 g solution)
Details | 278.15 K | 283.15 K | 288.15 K | 293.15 K | 298.15 K | 303.15 K | 308.15 K | 313.15 K | 318.15 K
x2 = 0.03225 | 0.0181 | 0.0232 | 0.0292 | 0.0365 | 0.0451 | 0.0563 | 0.0686 | 0.0826 | 0.0993
x2 = 0.06974 | 0.0316 | 0.038 | 0.0464 | 0.0561 | 0.0674 | 0.0807 | 0.0957 | 0.112 | 0.131
x2 = 0.1139 | 0.0465 | 0.0552 | 0.0643 | 0.0756 | 0.0895 | 0.104 | 0.119 | 0.138 | 0.157
x2 = 0.1666 | 0.0629 | 0.0722 | 0.084 | 0.096 | 0.11 | 0.125 | 0.142 | 0.159 | 0.18
x2 = 0.2307 | 0.0788 | 0.0907 | 0.102 | 0.115 | 0.131 | 0.146 | 0.164 | 0.181 | 0.202
x2 = 0.3103 | 0.0908 | 0.103 | 0.115 | 0.13 | 0.144 | 0.161 | 0.18 | 0.198 | 0.218
x2 = 0.4117 | 0.0987 | 0.11 | 0.124 | 0.14 | 0.155 | 0.172 | 0.189 | 0.207 | 0.229
x2 = 0.5454 | 0.103 | 0.114 | 0.128 | 0.141 | 0.156 | 0.173 | 0.189 | 0.209 | 0.228
x2 = 0.7297 | 0.102 | 0.112 | 0.124 | 0.138 | 0.151 | 0.166 | 0.183 | 0.2 | 0.217

— the CheMixHub drug solubility set
